What was measured:
[1] = tested on: LX2 human stellate cells; test: Tgf-β driven activation of LX2 human stellate cells with Fasn inhibitor; format: cell-based
Experimental: In vitro screening of LX2 human stellate cells was executed by plating 500,000 cells/well in 6-well plates overnight at 37° C., 5% CO2 in 0% FBS DMEM medium (11885-076, Gibco). Following a 4-hour pre-treatment with 1 nM or 100 nM Fasn inhibitor (TVB-3664-S8563, Selleck Chemicals), stellate cell activation was initiated by adding recombinant human Tgf-β (240-B-002, R & D Systems) for a 5 ng/mL final concentration. After 48 hours, protein and mRNA were isolated from the cells and further analysis was performed.
Frozen liver tissue punches (25-50 mg) were homogenized in TRIzol (15596018, Thermo Scientific) using the Qiagen TissueLyser II. Chloroform was added to the homogenate and centrifuged for 15 minutes at maximum speed. The clear upper layer was added to an equal volume of 100% isopropanol and incubated for 1 h at 4° C. After 10 min of centrifugation at maximum speed, the supernatant was discarded, and 70 to 75% ethanol was added to wash the pellet. After 5 min of centrifugation at maximum speed, the supernatant was discarded, and the pellet was briefly dried in the hood prior to resuspension in double-distilled water. RNA concentration was measured via the Thermo Scientific NanoDrop2000 spectrophotometer. Complementary DNA was then synthesized from 1 μg of total RNA using iScript cDNA Synthesis Kit (1708890, Bio-Rad) and Bio-Rad T100 thermocycler. Quantitative RT-PCR was performed using iQ SybrGreen Supermix (4368708, Applied Biosystems) on the Bio-Rad CFX96 C1000 Touch Thermal Cycler and analyzed.
(§1) In the analysis of protein expression, cell lysates were homogenized in a RIPA buffer (25 mM Tris, pH 7.4 0.15 M NaCl 0.1% Tween 20) with 1:100 protease inhibitor (78442, Thermo Scientific). The lysates were denatured by boiling, separated on a 4 to 15% SDS/polyacrylamide gel electrophoresis gel (567-1094, Bio-Rad), and transferred to a nitrocellulose membrane (1704159, Bio-Rad). The membrane was blocked using TBS-T with 5% BSA for 1 hour at room temperature and incubated using p-SMAD3 (ab52903, Abcam), type I collagen (1310-30, Southern Biotech), and GAPDH (5174, Cell Signaling). The blot was further washed in TBS-T and incubated at room temperature with its corresponding secondary antibody for 30 minutes. Following another wash, the blot was incubated with ECL (32106, Thermo Scientific) and visualized with the ChemiDox XRS+ image-forming system.
To investigate the role of palmitate production in stellate cell activation, LX2 human stellate cells were treated with a validated, potent and specific small molecule inhibitor of Fasn, TVB-3664, at a final concentration of either 1 nM or 100 nM for 4 hours. Cells were then subjected to 5 ng/mL Tgf-β, a strong stimulator of stellate cell activation. Forty-eight hours later, the morphology of activated stellate cells, with increased cell size and elongation of spindle-like structures, was easily observed in Tgf-β treated cells.

[2] = tested on: FASN; test: Cholesterol conjugated Fasn-2314 in Tgfb activated Lx2 cells, Western blotting; format: cell-based, human; conditions: 1.5 uM, Tgfb 5 ng/ml
Experimental: as §1
Moreover, the protein level of Smad3 was also measured for untreated control, cholesterol conjugated non-targeting control, and cholesterol conjugated Fasn-2314. 1×10^6 of human Lx2 cells were plated in 10 cm2 plates and treated with 1.5 uM cholesterol conjugated Fasn-2314. 24 hrs post treatment Lx2 cells were activated with Tgfb (5 ng/ml) to induce fibrotic phenotype. 48 hrs post activation cells were harvested and processed for Western blotting analysis.

[3] = LX2 cells, 1 nM or 100 nM, 4 hours, then 5 ng/mL Tgf-β, 48 hours

Compound | Tgf-β-induced type 1 collagen protein expression [1, 3] | mRNA levels of Acta2 [1, 3] | mRNA levels of Col1a1 [1, 3] | morphological change of activated stellate cells [1, 3] | phosphorylated SMAD3 protein [1, 3] | Cpt1a gene expression ([1]; Tgf-β activated LX2 cells) | Hsp47 gene expression ([1]; Tgf-β activated LX2 cells) | Nrf2 gene expression ([1]; Tgf-β activated LX2 cells) | Pgc-1α gene expression ([1]; Tgf-β activated LX2 cells) | Pparα gene expression ([1]; Tgf-β activated LX2 cells) | Sirt1 gene expression ([1]; Tgf-β activated LX2 cells) | anti-fibrotic effect ([1]; Tgf-β activated LX2 cells) | expression of Nox4 ([1]; Tgf-β activated LX2 cells) | LC3II protein (autophagy) [2] | activation and collagen production in Tgfb treated stellate cells [2] | p62 protein (autophagy) [2] | phosphorylation of SMAD3 [2]
COCc1[nH]c(C(F)(F)F)nc1-c1cc(C(=O)N2CC(c3ccc(C#N)cc3)C2)c(C)cc1C [TVB-3664] | blocked | reduction | reduction | severely inhibited | reduced | reduction | reduction | remarkable upregulation | remarkable upregulation | remarkable upregulation | remarkable upregulation | strong anti-fibrotic effect | reduction in expression |  |  |  | 
FASN 2314: siRNA targeting human FASN; antisense SEQ ID NO: 56, TegChol sense SEQ ID NO: 57 (sense CCGAGUACAAUGUCAA; antisense UUGACAUUGUACUCGGCGGUU; sugars by position and backbone not given here; 2'-F/2'-OMe modifications not assigned, TegChol cholesterol on sense, further chemistry not fully specified) |  |  |  |  |  |  |  |  |  |  |  |  |  | accumulation | blunted | accumulation | blunted
